How the values were obtained:
flavodoxin of H. pylori = target: T1, flavodoxin of H. pylori (Helicobacter pylori, UniProt O25776); assay: Isothermal titration calorimetry (ITC) binding to flavodoxin; settings: 50 mM EPPS buffer, pH 9, 7% DMSO; protein around 20 μM; read-out: affinity for flavodoxin (ITC)
T1 construct: made in house; host or cells: E. coli BL21 (pET28a)
Experimental: The specific binding of the inhibitors of the disclosed compounds to flavodoxin of H. pylori was confirmed by isothermal titration calorimetry (ITC). This technique not only measures the affinity of each compound for the target protein, but also determines the contribution of the enthalpic and entropic components of binding.
The binding experiments were carried out in 50 mM EPPS buffer, pH 9 with 7% DMSO, with the inhibitor in the injection syringe at a concentration of 300-500 μM, and the protein around 20 μM in the measurement cell.

H. pylori flavodoxin = target: T2, H. pylori flavodoxin (Helicobacter pylori, UniProt O25776); assay: Inhibition assay of sequential electron transfer pyruvate/PFOR/flavodoxin/FqrB/NADP+ (NADPH formation at 340 nm); type: biochemical; settings: 50 μM compound; anaerobic; 10 μM Fld; absorbance at 340 nm
T2 construct: made in house; host or cells: E. coli BL21 (flavodoxin, pET28a); E. coli JVQ2 (PFOR); E. coli BL21(DE3) (FqrB)
T2 sequence (O25776 1-164): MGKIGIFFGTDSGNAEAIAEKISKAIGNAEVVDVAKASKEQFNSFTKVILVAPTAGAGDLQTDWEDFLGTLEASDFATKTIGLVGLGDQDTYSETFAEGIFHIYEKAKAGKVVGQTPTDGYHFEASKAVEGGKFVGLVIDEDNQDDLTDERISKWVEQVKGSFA
Excerpt: Flavodoxin is an essential protein for Helicobacter pylori survival as it participates in a fundamental reaction for obtaining energy from the oxidative decarboxylation of pyruvate. In this reaction, flavodoxin transfers electrons between the PFOR enzyme and the FqrB enzyme, which releases them to NADP^+.
The sequential reaction of electron transfer between pyruvate, PFOR, flavodoxin, FqrB and NADP^+ (activity assay) was followed spectroscopically by the appearance of the signal at 340 nm with the formation of NADPH. The reaction mixture contained 100 mM potassium phosphate pH 7, 10 mM pyruvate, 0.18 mM CoA, 1 mM MgCl, 0.3 mM NADP^+, 0.09 mg/ml PFOR, 10 μM Fld and 0.15 μM FqrB. The mixture, except CoA, was placed in a cuvette specially designed for anaerobic conditions. Oxygen was removed by means of 5 minute cycles with alternate flows of vacuum and argon. The reaction was started by the addition of 0.18 mM coenzyme A (CoA) that was held in a compartment inside the same cuvette. The reaction finished 15 minutes after adding the CoA reagent.
The inhibition assays were carried out in the same conditions as the activity assays previously described, adding an additional 50 μM of the disclosed compound of the general formula shown in (II) to the reaction cuvette.

Structure (SMILES): O=[N+]([O-])C1=Cc2cc(Cl)cc(Cl)c2OC1c1ccc(F)cc1 (centres unmarked) [formula (II)]
- Kd (flavodoxin of H. pylori): 1600 nM
- inhibition of NADPH formation (pyruvate oxidative decarboxylation reaction) (H. pylori flavodoxin): almost total

Source: patent publication US8080664B2, “Use of compounds as inhibitors for Helicobacter flavodoxin” (Universidad De Zaragoza, priority 2007, dated 2011)
